{"source": "patent US4242453A", "about": "“Cultivating streptomyces to produce an esterase inhibitor” (Zaidan Hojin Biseibutsu Kagaku Kenkyu Kai, priority 1977, dated 1980)", "key": {"[1]": {"biological_target": "esterase of pig pancreas", "experiment": "Inhibition of esterase (decomposition of p-nitrophenyl acetate by crude lipase preparation)", "format": "biochemical", "method": "Thus, a commercially available, crude lipase preparation obtained from pig pancreas is dissolved to a concentration of 0.5% (by weight) in a 0.05 M phosphate buffered solution (pH 7.0) containing 0.2% \"Triton X-100\" (a trade name of an emulsifier consisting of a polyethyleneglycol alkylphenylether, a product of Rohm & Haas Co., U.S.A.). 0.03 ml of this lipase solution, 2.92 ml of 0.05 M phosphate buffered solution (pH 7.0) and 0.025 ml of a solution containing an esterastin sample to be assayed are mixed together, and the resulting mixture (2.975 ml) is warmed at 20° C. for 3 minutes and then admixed with 0.025 ml of a solution containing 10 mg/ml of p-nitrophenyl acetate in methanol to start the reaction of p-nitrophenyl acetate with lipase. After the reaction was effected at 20° C. for 30 minutes, absorbance (a) at 400 nm of the resulting reaction solution is measured. On the other hand, absorbance (b) at 400 nm of a control reaction solution obtained from the blank test using the 0.05 M phosphate buffered solution containing no esterastin is measured in the same way as above. Degree (%) of inhibition to esterase is calculated according to the following equation: [formula]"}, "[2]": {"tested_on": "mice", "experiment": "Acute toxicity in mice", "format": "in vivo", "conditions": "250 mg/kg, intraperitoneal injection", "source_text": "As known substances which inhibit the esterase, there may be mentioned paradoxon and di-isopropyl fluorophosphate etc., which are highly toxic compounds. […] In these respects, it also can be confirmed that esterastin is a novel substance."}, "[3]": {"tested_on": "antibody-forming cells per spleen", "experiment": "Effect on formation of humoral antibody (Jerne plaque technique, SRBC-immunized mice)", "format": "in vivo, dd/Y mice", "conditions": "for Number of antibody-forming cells per spleen (± S.E.): 10^8 SRBC i.v., day 4", "protocol": "Groups of dd/Y mice (5 female mice per group, 6-8 weeks old) were immunized with 10^8 red blood cells of sheep as the anitgen (in the form of a suspension in physiological saline solution) by intravenous injection to develop the immunity. At the same time, 1 mg, 250 mcg, 62.5 mcg or 15.6 mcg of esterastin (in the form of a suspension in 1% DMSO-saline) per mouse were intraperitoneally injected into the separate groups of mice, respectively. On the 4 days after the immunization, the mice treated were sacrificed, spleen was teased and the number of the antibody-forming cells present in each mouse spleen was enumerated according to the method of Jerne (see N. K. Jerne, A. A. Nordin and C. Henry: \"The agar plaque technique for recognizing antibody-producing cells. Cell-bound Antibodies.\" ed. B. Amos and H. Koprowski pp. 109-122, Wister Institute Press. Philadelphia, 1963)."}, "[4]": {"tested_on": "D.T.H. to SRBC in mice", "experiment": "Effect on cell-mediated immunity (Delayed Type Hypersensitivity to SRBC, footpad swelling)", "format": "in vivo, dd/Y mice", "conditions": "for Increase of footpad thickness: 24 hours after eliciting injection of 10^8 SRBC", "protocol": "Effect of esterastin on the cellular immunity was tested according to a known Delayed Type Hypersensitivity (D.T.H.) technique (see P. H. Lagrange, G. B. Mackaness and T. E. Mille: \"J. Exp. Med.\", 139, 1529-1539 (1974)) using mice immunized with sheep red blood cells as the antigen.\nThus, 10^8 sheep red blood cells suspended in 0.05 ml of physiological saline solution were immunized by subcutaneous injection to the one side of dd/Y mice hind footpad (5 mice per group, female, 6-weeks old) to establish delayed-type hypersensitivity. At the same time as this immunization, 1 mg/mouse, 250 mcg/mouse, 62.5 mcg/mouse or 15.6 mcg/mouse of esterastin were intraperitoneally injected to each test mouse. Four days later, 10^8 sheep rod blood cells were injected subcutaneously into the other side of each test mouse footpad for elicitation of D.T.H. response. 24 Hours after the eliciting injection, the thickness (in mm) of the footpad was measured to evaluate the degree of the swelling in the footpad which received the eliciting injection of sheep rod blood cells. The extent of the swelling in the footpad serves as a measure to estimate the cellular immunity involved."}, "[5]": {"tested_on": "cultured cells", "experiment": "Cell toxicity to cultured cells", "format": "cell-based", "conditions": "concentration of 10 mcg/ml"}, "[6]": {"experiment": "Solubility in solvents", "format": "physicochemical"}}, "note": "Entries after “also recorded” stand apart in the source; their conditions may differ."}
{"smiles": "CCCCCC=CCC=CCC(CC1OC(=O)C1CCCCCC)OC(=O)C(CC(N)=O)NC(C)=O", "note": "(stereo not shown) [esterastin]", "values": [{"measurement": "IC50", "setting": "[1]; p-nitrophenyl acetate as the substrate, read-out: concentration giving 50% inhibition of esterase", "value": 0.041, "unit": "nM"}, {"measurement": "ID50, dose giving 50% inhibition to esterase", "setting": "[1]; p-nitrophenyl acetate substrate, pH 7.0, 20° C., 30 minutes", "value": 0.2, "unit": "ng/mL"}, {"measurement": "acute toxicity", "setting": "[2]", "value": "no toxicity was observed at all; also recorded: does not give any sympton of toxicity at all"}, {"measurement": "Number of antibody-forming cells per spleen (± S.E.)", "setting": "[3]; 1 mg per mouse i.p.", "value": "45,300 ± 3,300"}, {"measurement": "effect on number of the antibody forming cells (in words)", "setting": "[3]; 1 mg to 62.5 mcg to mice", "value": "remarkably reduces the number of the antibody forming cells"}, {"measurement": "Number of antibody-forming cells per spleen (± S.E.)", "setting": "[3]; 15.6 mcg per mouse i.p.", "value": "173,000 ± 19,600"}, {"measurement": "Number of antibody-forming cells per spleen (± S.E.)", "setting": "[3]; 62.5 mcg per mouse i.p.", "value": "55,000 ± 5,700"}, {"measurement": "Number of antibody-forming cells per spleen (± S.E.)", "setting": "[3]; 250 mcg per mouse i.p.", "value": "52,000 ± 2,300"}, {"measurement": "effect on development of D.T.H. (in words)", "setting": "[4]; 1 mg to 250 mcg to mice", "value": "remarkably suppresses the development of D.T.H."}, {"measurement": "Increase of footpad thickness", "setting": "[4]; 1 mg/mouse i.p.", "value": 3.8, "unit": "× 0.1 mm"}, {"measurement": "Increase of footpad thickness", "setting": "[4]; 62.5 mcg/mouse i.p.", "value": 6.2, "unit": "× 0.1 mm"}, {"measurement": "Increase of footpad thickness", "setting": "[4]; 250 mcg/mouse i.p.", "value": 3.0, "unit": "× 0.1 mm"}, {"measurement": "cell toxicity to the cultured cells", "setting": "[5]", "value": "no cell toxicity"}, {"measurement": "solubility in petroleum ether and hexane", "setting": "[6]; petroleum ether and hexane", "value": "sparingly soluble; also recorded: substantially insoluble"}, {"measurement": "solubility in organic solvents", "setting": "[6]; pyridine, dimethylsulfoxide, methanol, ethanol, acetone, ethyl acetate, butyl acetate, chloroform and benzene", "value": "readily soluble"}, {"measurement": "solubility in water", "setting": "[6]; water", "value": "sparingly soluble; also recorded: substantially insoluble"}]}
